{"source": "paper PMC7044277", "about": "(Nature Communications, 2020)", "assay_type_in_all_cases": "cell-based", "key": {"320 non-olfactory GPCRs [1]": {"target": "T1, 320 non-olfactory GPCRs (Homo sapiens, UniProt P30556)", "T1 construct": "expressed in transfected cells; host or cells: HTLA cells", "T1 sequence (P30556 whole entry)": "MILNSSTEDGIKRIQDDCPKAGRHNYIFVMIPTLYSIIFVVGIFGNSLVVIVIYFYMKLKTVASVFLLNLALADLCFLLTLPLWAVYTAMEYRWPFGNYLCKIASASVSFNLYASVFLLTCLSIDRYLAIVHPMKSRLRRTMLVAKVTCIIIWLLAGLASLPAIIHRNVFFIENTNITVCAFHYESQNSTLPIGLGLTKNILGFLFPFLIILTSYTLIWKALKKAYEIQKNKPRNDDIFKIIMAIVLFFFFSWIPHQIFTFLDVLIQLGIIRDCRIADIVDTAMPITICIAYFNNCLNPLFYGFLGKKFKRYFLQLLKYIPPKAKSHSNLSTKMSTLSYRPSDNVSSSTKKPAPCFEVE"}, "320 non-olfactory GPCRs [2]": {"target": "T2, 320 non-olfactory GPCRs (Homo sapiens, UniProt P48960)", "T2 construct": "expressed in transfected cells; host or cells: HTLA cells", "T2 sequence (P48960 21-835)": "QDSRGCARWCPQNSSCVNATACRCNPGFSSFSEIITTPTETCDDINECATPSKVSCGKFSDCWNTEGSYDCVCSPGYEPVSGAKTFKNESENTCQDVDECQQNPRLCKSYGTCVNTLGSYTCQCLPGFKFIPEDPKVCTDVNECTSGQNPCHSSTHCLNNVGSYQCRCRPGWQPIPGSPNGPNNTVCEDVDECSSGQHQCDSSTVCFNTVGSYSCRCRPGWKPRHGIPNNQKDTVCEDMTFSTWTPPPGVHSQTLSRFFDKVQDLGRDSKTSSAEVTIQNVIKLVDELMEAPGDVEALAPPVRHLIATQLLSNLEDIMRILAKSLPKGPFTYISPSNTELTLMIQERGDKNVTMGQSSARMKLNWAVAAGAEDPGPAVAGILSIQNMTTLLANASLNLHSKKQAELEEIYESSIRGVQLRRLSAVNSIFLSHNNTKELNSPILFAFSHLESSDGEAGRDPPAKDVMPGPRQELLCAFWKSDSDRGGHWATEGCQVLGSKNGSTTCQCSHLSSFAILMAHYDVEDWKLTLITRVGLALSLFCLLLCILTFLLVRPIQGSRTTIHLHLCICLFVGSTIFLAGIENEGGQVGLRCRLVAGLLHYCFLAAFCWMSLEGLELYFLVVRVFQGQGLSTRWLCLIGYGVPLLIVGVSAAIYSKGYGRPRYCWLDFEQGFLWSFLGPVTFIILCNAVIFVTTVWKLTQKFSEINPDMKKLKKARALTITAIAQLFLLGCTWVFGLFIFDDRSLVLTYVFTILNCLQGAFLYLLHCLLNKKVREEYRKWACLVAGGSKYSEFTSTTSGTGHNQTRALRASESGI"}, "320 non-olfactory GPCRs [3]": {"target": "T3, 320 non-olfactory GPCRs (Homo sapiens, UniProt Q96LB2)", "T3 construct": "expressed in transfected cells; host or cells: HTLA cells", "T3 sequence (Q96LB2 whole entry)": "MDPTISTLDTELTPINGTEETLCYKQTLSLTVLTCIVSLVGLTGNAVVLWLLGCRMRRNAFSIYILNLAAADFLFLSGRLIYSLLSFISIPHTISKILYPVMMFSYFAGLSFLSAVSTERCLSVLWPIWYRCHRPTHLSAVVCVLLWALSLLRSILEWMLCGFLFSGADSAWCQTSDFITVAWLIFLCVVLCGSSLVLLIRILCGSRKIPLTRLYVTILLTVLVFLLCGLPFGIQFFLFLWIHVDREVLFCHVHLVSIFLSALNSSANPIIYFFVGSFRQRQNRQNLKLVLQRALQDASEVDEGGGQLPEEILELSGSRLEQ", "details": "receptor MRGPRX1; replicate values, Fig_4g"}, "320 non-olfactory GPCRs [4]": {"target": "T4, 320 non-olfactory GPCRs (Homo sapiens, UniProt Q9H244)", "T4 construct": "expressed in transfected cells; host or cells: HTLA cells", "T4 sequence (Q9H244 whole entry)": "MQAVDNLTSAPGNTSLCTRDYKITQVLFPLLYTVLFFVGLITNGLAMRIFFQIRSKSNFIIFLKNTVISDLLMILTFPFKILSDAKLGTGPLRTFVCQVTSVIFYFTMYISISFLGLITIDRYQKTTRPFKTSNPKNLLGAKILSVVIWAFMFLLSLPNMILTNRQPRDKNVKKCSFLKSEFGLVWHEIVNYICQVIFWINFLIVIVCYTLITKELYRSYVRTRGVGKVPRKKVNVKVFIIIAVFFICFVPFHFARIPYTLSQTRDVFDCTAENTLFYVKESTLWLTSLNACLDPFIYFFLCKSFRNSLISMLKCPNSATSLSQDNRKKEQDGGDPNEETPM", "details": "receptor P2RY12; replicate values, Fig_4g"}}, "note": "Values joined by “and” are separate entries in the source; they are usually repeats but may differ in a detail not shown here. Equal values may be shown once.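 For Fold of Basal in this document: compound tested at 1 µM final concentration.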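 For GPCRome agonism screen response in this document: fold over basal response of each receptor without drug.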"}
{"smiles": "CCOc1cccc2cc(C(C)NCC3(O)CCCCC3)oc12", "note": "(stereo not shown) [O4LE6]", "values": [{"measurement": "Fold of Basal", "setting": "320 non-olfactory GPCRs [1]", "result": "1.668 and 2.301 and 2.105 and 2.204"}, {"measurement": "Fold of Basal", "setting": "320 non-olfactory GPCRs [2]", "result": "0.9696 and 0.6986 and 0.95 and 0.7013"}, {"measurement": "GPCRome agonism screen response", "setting": "320 non-olfactory GPCRs [3]", "result": "1.163 and 1.233 and 1.345 and 0.8039"}, {"measurement": "GPCRome agonism screen response", "setting": "320 non-olfactory GPCRs [4]", "result": "1.331 and 0.8524 and 1.417 and 1.455"}]}
